For test [1], the system named is calf thymus DNA (CT-DNA). The test is described as follows: Competitive EtBr displacement assay. In kind it is binding. The note with it: CT-DNA saturated with EtBr; 1 h, room temperature; read-out: C50 (50% reduction of EtBr fluorescence). Here is the method: To investigate the capacity of the complexes to intercalate into DNA, the competitive ethidium displacement assay was carried out as previously described[149] with minor modifications. Stock solutions of 20 μM calf thymus DNA (CT-DNA) and 25 μM Ethidium bromide (EtBr) were prepared in saline TE (50 mM NaCl, 10 mM tris(hydroxymethyl) aminomethane–HCl, 0.1 mM ethylenediaminetetracetic acid (EDTA), pH 7.4). Serial dilutions of metal complexes were prepared at concentrations ranging from 20 to 400 μM from a 1 mM stock solution containing 20% DMSO. The assay was carried out by mixing 25 μL of CT-DNA and 25 μL of EtBr with 50 μL of each compound dilution, on a black 96-well plate. The plate was incubated at room temperature for 1 h and the fluorescence was measured on a Synergy 4 microplate reader (Biotek, Winooski), with excitation wavelength set to 500 nm, and emission wavelength set to 530–800 nm. The fluorescence emission at 590 nm was used to measure the C50, corresponding to the concentration of compound required to induce a 50% decrease in the fluorescence of the EtBr. Experiments were performed in triplicate.

Test [2] deals with A549 cancer cells. Briefly: MTT cell viability assay, dark or photoactivated. In kind it is cell-based, human. The note with it: A549; for IC50: 4 h incubation; for IC50 / PI green light (IC50,dark/IC50,light) / PI blue light (IC50,dark/IC50,light) / PI red light (IC50,dark/IC50,light): MTT; for PI green light (IC50,dark/IC50,light): green light 530 nm; for PI green light (IC50,dark/IC50,light) / PI blue light (IC50,dark/IC50,light) / PI red light (IC50,dark/IC50,light): 24.1 J cm^–2; for PI blue light (IC50,dark/IC50,light): blue light 460 nm; for PI/Dose: dose 24.1 J cm‐2, PI from MTT; for PI red light (IC50,dark/IC50,light): red light 655 nm. The protocol:
Cells were cultured in 96-well plates at a density of 3000 (A549), 2500 (HeLa), or 5000 (PC-3, 1BR.3.G, and MRC-5) cells per well in cell culture medium and allowed to attach for 24 h. Solutions of the complexes at different concentrations were prepared for cell treatments. In all cases, the solid compounds were weighed using an analytical balance (Mettler Toledo AX205DR) to ensure precise measurements. Subsequently, 5 mM solutions were prepared using DMSO. Solutions were then diluted in water to reach a concentration of 1 mM and then, aliquots were taken and diluted in culture medium to obtain solutions ranging from 0 to 50 μM. […] The cells were treated with these solutions in dark conditions or following the photoactivation protocol (see below). 48 h later the treatments were removed, and cells were washed with phosphate-buffered saline (PBS).
Initially, the effect of the complexes on the cell viability was determined by the 3-(4,5-dimethylthiazol-2-yl)-2,5-diphenyltetrazolium bromide (MTT) assay.[147] The cells were incubated for 2 h with 100 μL of culture medium together with 10 μL of MTT (Sigma-Aldrich) at 0.5 mg/mL. After discarding the medium, DMSO was added to each well to dissolve the purple formazan crystals. The absorbance of each well was determined on a Multiscan Plate Reader (Synergy 4, Biotek, Winooski) at a wavelength of 570 nm. Cell viability was also assessed using the CyQUANT Direct Cell Proliferation Assay (Thermo Fisher Scientific), following the manufacturer’s instructions. Briefly, after the treatments, the cells were washed with PBS, and an equal volume of culture medium and CyQUANT mix was added to each well. The plates were then incubated for 1 h at 37 °C. Subsequently, the fluorescence intensity was bottom read using a Multiscan Plate Reader (Synergy 4, Biotek, Winooski) with excitation and emission filters of 485 and 528 nm, respectively. In both assays, at least three replicates were measured for each treatment. The concentration that reduces the cell viability by 50% (IC50) was established using the Gen5 software (BioTek). Three independent experiments were carried out for each compound. […] The phototoxicity index (PI = IC50,dark/IC50,light) was determined.
To assess the photodynamic activity of the complexes, cells were incubated with the complexes for 4 h to enable their intracellular accumulation. The cells were then irradiated with light with a wavelength of 460 nm (blue), 530 nm (green), or 655 nm (red) for 1 h using a LED system (LuxLight) with an effective power of 6.7 mW cm^–2, which provides a total light dose of 24.1 J cm^–2. The LED system was positioned at 25 mm from the cell culture plates.
(In general: Formazan colour is commonly taken as a measure of viable cells.)

A short description of test [3]: 1O2 quantum yield determination with DPBF. The note with it: acetonitrile; for 1O2 generation quantum yield (ϕΔ), DPBF: 470 nm blue light. The protocol: It was performed for complexes 1–8 in acetonitrile according to a relative procedure adapted from the literature[132]−[134] based on monitoring the oxidation of 1,3-diphenylisobenzofuran (DPBF, yellow) to 1,2-dibenzoylbenzene (colorless) photosensitized by the Ir(III) complexes. DPBF was used as an ^1O2 scavenger due to its fast reaction with this molecule. Fresh stock air-equilibrated solutions of photosensitizers (6.00 × 10^–6 M) and DPBF (1.50 × 10^–4 M) in acetonitrile were prepared. In a quartz cell, 1 mL of DPBF solution, 0.5 mL of complex solution, and 1.5 mL of acetonitrile were mixed to prepare a final solution with 5.00 × 10^–5 M DPBF and 1.00 × 10^–6 M complex. The final solutions were studied by recording UV–vis absorption spectra at room temperature in dark conditions (over a period of 6 min with time intervals of 2 min), under blue light irradiation (λexc = 470 nm, “Medusa” photoreactor) and under green light irradiation (λexc = 530 nm, “Medusa” photoreactor) for 5 s irradiation intervals during a total exposure period of 20 s. Absorption UV–vis spectra were recorded after every irradiation interval.
The consumption of DPBF probe was measured by monitoring its absorbance intensity decrease at 410 nm with irradiation time. ^1O2 generation quantum yield (ϕΔ) was calculated from eq 1 using Rose Bengal or [Ru(bpy)3]^2+ as reference for complexes with pbpz and pbpn ligands, respectively: [drawing 22] 1 where s and ref subscripts correspond to the complex and the reference, ϕΔ is the ^1O2 generation quantum yield (0.53 for Rose Bengal[135] and 0.56 for [Ru(bpy)3]Cl2[132] in degassed acetonitrile), S is the slope of the plots of the −ln(normalized absorbance) of DPBF at 410 nm vs the irradiation time, and F is the correction factor of absorption, which is given by F = 1–10^–O.D. (where O.D. is the optical density at 470 nm of solutions of complexes and references). The reproducibility of the results was confirmed by performing each experiment three times.
The stability of DPBF probe was studied in dark conditions and under light irradiation. In dark conditions and under green light irradiation the probe remains unaltered. However, under blue light irradiation, a photobleaching of DPBF was observed. Probe consumption was approximately 6.5% every 5 s. Therefore, a working interval of 20 s was chosen, where 75% of the probe remains stable. To calculate the ϕΔ, a correction factor was applied to the absorbance at 410 nm: a 6.5% of the previous value was added to each absorbance to counteract self-consumption of the probe (i.e., to the absorbance at 10 s, a 6.5% of the absorbance at 5 s was added).

Where [4] appears, read: blue light 460 nm 1 h (24.1 J cm^–2), 48 h, read-out: IC50 blue light.
Setting [5] is: green light 530 nm 1 h (24.1 J cm^–2), 48 h, read-out: IC50 green light.
Setting [6] is: kept in the dark, viability after 48 h, read-out: IC50 dark.
Where [7] appears, read: red light 655 nm 1 h (24.1 J cm^–2), 48 h, read-out: IC50 red light.

Read-outs that look alike come from different tables or passages of the source.

The results in this text go back to paper PMC10859961, “Ir(III) Half-Sandwich Photosensitizers with a π-Expansive Ligand for Efficient Anticancer Photodynamic Therapy” (Journal of Medicinal Chemistry, 2024).

For the compound `Cc1c(C)c(C)[c-](C)c1C.[Cl][Ir]1[c]2cccc3c4nc5ccccc5nc4c4ccc[n+]1c4c23` [complex 1, [(η^5-C5Me5)IrCl(pbpz)]], the IC50 in test [1] was found to be 192000 nM; in test [2] (setting [4]) it was 2900 ± 400 nM; in test [2] (setting [5]) it was 5800 ± 100 nM; in test [2] (setting [6]), 8000 ± 1000 nM. Also, in test [2], the “PI green light (IC50,dark/IC50,light)” value is 1.4. The “1O2 generation quantum yield (ϕΔ), DPBF” value in test [3] is recorded as 0.0780.

Take `Cc1c(C)c(C)[c-](C)c1C.F[B-](F)(F)F.c1ccc2nc3c4ccc[n+]5c4c4[c](cccc4c3nc2c1)[Ir]5[n+]1ccn(CCN2CCCCC2)c1` [complex 5, [(η^5-C5Me5)Ir(Imepip)(pbpz)]BF4]: the IC50 in test [1] was determined as 54600 nM; in test [2] (setting [4]), 390 ± 100 nM; in test [2] (setting [5]) it was 520 ± 20 nM; in test [2] (setting [6]) it was 830 ± 20 nM. Also, in test [2], the “PI blue light (IC50,dark/IC50,light)” value stood at 2.1. Further, the “PI green light (IC50,dark/IC50,light)” value in test [2] came out at 1.6. Also, the “1O2 generation quantum yield (ϕΔ), DPBF” value in test [3] turned out to be 0.026.

Consider `Cc1c(C)c(C)[c-](C)c1C.F[B-](F)(F)F.c1ccc2cc3nc4c5ccc[n+]6c5c5[c](cccc5c4nc3cc2c1)[Ir]6[n+]1cc[nH]c1` [complex 4, [(η^5-C5Me5)Ir(Im)(pbpn)]BF4], for which the IC50 stood at 15900 nM in test [1]; 3.2 ± 2 nM in test [2] (setting [4]); 10 ± 3 nM in test [2] (setting [5]); 2900 ± 1000 nM in test [2] (setting [6]); 120 ± 50 nM in test [2] (setting [7]). Besides, the PI/Dose in test [2] (530 nm) is listed as 12.2. For the same compound, the “PI green light (IC50,dark/IC50,light)” value in test [2] is 294. Besides, the “PI red light (IC50,dark/IC50,light)” value in test [2] worked out at 25. The “1O2 generation quantum yield (ϕΔ), DPBF” value in test [3] is recorded as 0.9894. The “Slope (S) of ‐ln(normalized Abs) vs time, photooxidation of DPBF” value (from here on “Slope (S) of ‐ln(normalized Abs) vs time”) in test [3] (λir = 470 nm) is recorded as 0.0890; in test [3] (λir = 530 nm), 0.0058.

As to `Cc1c(C)c(C)[c-](C)c1C.F[B-](F)(F)F.c1ccc(Cn2cc[n+]([Ir]3[c]4cccc5c6nc7cc8ccccc8cc7nc6c6ccc[n+]3c6c45)c2)cc1` [complex 8, [(η^5-C5Me5)Ir(bzIm)(pbpn)]BF4], the IC50 in test [1] was 15900 nM; in test [2] (setting [4]), 0.2 ± 0.1 nM; in test [2] (setting [5]), 2.1 ± 0.4 nM; in test [2] (setting [6]), 150 ± 50 nM; in test [2] (setting [7]), 30 ± 20 nM. Moreover, the “PI green light (IC50,dark/IC50,light)” value in test [2] stood at 71. In addition, the “PI red light (IC50,dark/IC50,light)” value in test [2] was found to be 5. The “1O2 generation quantum yield (ϕΔ), DPBF” value in test [3] was determined as 0.99. Further, the figures for the “Slope (S) of ‐ln(normalized Abs) vs time” value in test [3] (λir = 470 nm) and in test [3] (λir = 530 nm) were 0.0771 and 0.0061, respectively.

As to `Cc1c(C)c(C)[c-](C)c1C.F[B-](F)(F)F.c1ccc(Cn2cc[n+]([Ir]3[c]4cccc5c6nc7ccccc7nc6c6ccc[n+]3c6c45)c2)cc1` [complex 7, [(η^5-C5Me5)Ir(bzIm)(pbpz)]BF4], the IC50 in test [1] amounted to 95400 nM; in test [2] (setting [4]) it was 650 ± 200 nM; in test [2] (setting [5]), 470 ± 40 nM; in test [2] (setting [6]), 770 ± 200 nM. Also, the “PI blue light (IC50,dark/IC50,light)” value in test [2] is reported as 1.2. In addition, the “PI green light (IC50,dark/IC50,light)” value in test [2] was 1.7. Further, the “1O2 generation quantum yield (ϕΔ), DPBF” value in test [3] is listed as 0.0204.

Turning to `Cc1c(C)c(C)[c-](C)c1C.F[B-](F)(F)F.c1ccc2cc3nc4c5ccc[n+]6c5c5[c](cccc5c4nc3cc2c1)[Ir]6[n+]1ccn(CCN2CCCCC2)c1` [complex 6, [(η^5-C5Me5) Ir(Imepip)(pbpn)]BF4], the IC50 in test [1] turned out to be 32800 nM; in test [2] (setting [4]) it was 1.5 ± 0.5 nM; in test [2] (setting [5]), 11 ± 4 nM; in test [2] (setting [6]), 2000 ± 100 nM; in test [2] (setting [7]), 32 ± 10 nM. Also, the PI/Dose is 54.6 in test [2] (460 nm) and 2.6 in test [2] (655 nm). In addition, in test [2], the “PI green light (IC50,dark/IC50,light)” value is listed as 179. Also, in test [2], the “PI red light (IC50,dark/IC50,light)” value came out at 63. For the same compound, the “1O2 generation quantum yield (ϕΔ), DPBF” value in test [3] was 0.8118. In addition, the “Slope (S) of ‐ln(normalized Abs) vs time” value turned out to be 0.0657 in test [3] (λir = 470 nm) and 0.0069 in test [3] (λir = 530 nm).
